Where “and” joins values, the source holds several entries; their conditions need not be identical. Equal values may be shown once. Toxic doses and inconclusive results are not listed. How the source made its calls: active means survival T/C of 150% or more; inactive means T/C below 125% in these data.
Tested on: CD2F1 mice, L1210 leukemia ip, survival T/C
Experiment: NCI In Vivo Anticancer Drug Screen. Data for tumor model L1210 Leukemia (intraperitoneal) in CD2F1 (CDF1) mice
Settings: endpoint: mean survival time, higher = longer survival
Outline: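 Each value reflects a quotient of treated over vehicle control outcomes in mice with a transplanted tumor.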

[1] = dose: 50.0 mg/kg/injection, schedule: Q04DX002 (ip), vehicle: saline with Tween-80
[2] = dose: 100.0 mg/kg/injection, schedule: Q04DX002 (ip), vehicle: saline with Tween-80
[3] = dose: 200.0 mg/kg/injection, schedule: Q04DX002 (ip), vehicle: saline with Tween-80
[4] = dose: 100.0 mg/kg/injection, schedule: Q04DX003 (ip), vehicle: saline
[5] = dose: 200.0 mg/kg/injection, schedule: Q04DX003 (ip), vehicle: saline
[6] = dose: 100.0 mg/kg/injection, schedule: Q01DX009 (ip), vehicle: saline
[7] = dose: 100.0 mg/kg/injection, schedule: Q04DX003 (ip), vehicle: saline with Tween-80
[8] = dose: 200.0 mg/kg/injection, schedule: Q01DX009 (ip), vehicle: saline
[9] = dose: 200.0 mg/kg/injection, schedule: Q04DX003 (ip), vehicle: saline with Tween-80
[10] = dose: 100.0 mg/kg/injection, schedule: Q01DX001 (ip), vehicle: saline
[11] = dose: 100.0 mg/kg/injection, schedule: Q01DX009 (ip), vehicle: saline with Tween-80
[12] = dose: 200.0 mg/kg/injection, schedule: Q01DX009 (ip), vehicle: saline with Tween-80
[13] = dose: 400.0 mg/kg/injection, schedule: Q04DX003 (ip), vehicle: saline
[14] = dose: 400.0 mg/kg/injection, schedule: Q04DX003 (ip), vehicle: saline with Tween-80
[15] = dose: 400.0 mg/kg/injection, schedule: Q01DX009 (ip), vehicle: saline with Tween-80
[16] = dose: 25.0 mg/kg/injection, schedule: Q04DX002 (ip), vehicle: saline with Tween-80

Measured: T/C

COc1ccc(COC(=O)Nc2ccc(Cl)cc2)cc1
inactive: [1] 104 % of control | [2] 100 % of control | [3] 92 % of control

CCCCC(CC)COP(=O)(CC(CC)CCCC)OCC(CC)CCCC (stereo unspecified)
inactive: [4] 86 % of control | [5] 94 % of control

C/C=C/CNc1ccccc1
inactive: dose: 50.0 mg/kg/injection, schedule: Q01DX009 (ip), vehicle: saline 102 % of control | [6] 101 % of control | [7] 95 % of control | [8] 96 % of control | [9] 97 % of control

O=C(O)CCC(=O)CCC(=O)c1ccc2ccccc2c1
inactive: [10] 98 % of control | dose: 200.0 mg/kg/injection, schedule: Q01DX001 (ip), vehicle: saline 98 % of control | dose: 400.0 mg/kg/injection, schedule: Q01DX001 (ip), vehicle: saline 95 % of control

C=CC1CN2CCC1CC2C(O)c1ccnc2ccccc12 (stereo unspecified) (tested in a mixture with another compound)
inactive: dose: 25.0 mg/kg/injection, schedule: Q04DX003 (ip), vehicle: saline with Tween-80 100 % of control | dose: 50.0 mg/kg/injection, schedule: Q01DX001 (ip), vehicle: saline with Tween-80 100 % of control | dose: 50.0 mg/kg/injection, schedule: Q01DX009 (ip), vehicle: saline with Tween-80 96 % of control | dose: 50.0 mg/kg/injection, schedule: Q04DX003 (ip), vehicle: saline with Tween-80 98 % of control | dose: 100.0 mg/kg/injection, schedule: Q01DX001 (ip), vehicle: saline with Tween-80 96 % of control and 92 % of control | [11] 98 % of control | [7] 93 % of control and 100 % of control | dose: 200.0 mg/kg/injection, schedule: Q01DX001 (ip), vehicle: saline with Tween-80 104 % of control and 92 % of control | [12] 90 % of control

O=C1c2ccccc2C(=O)C1(Cl)C(Cl)c1ccc([N+](=O)[O-])cc1 (stereo unspecified)
inactive: dose: 100.0 mg/kg/injection, schedule: Q04DX003 (ip), vehicle: Klucel (hydroxypropylcellulose) (HPC) 100 % of control | dose: 200.0 mg/kg/injection, schedule: Q04DX003 (ip), vehicle: Klucel (hydroxypropylcellulose) (HPC) 106 % of control | dose: 400.0 mg/kg/injection, schedule: Q04DX003 (ip), vehicle: Klucel (hydroxypropylcellulose) (HPC) 106 % of control

CCOC(=O)CC(=O)N(CC)CC
inactive: [6] 98 % of control | [4] 99 % of control | [8] 93 % of control | [5] 95 % of control | dose: 400.0 mg/kg/injection, schedule: Q01DX009 (ip), vehicle: saline 96 % of control | [13] 108 % of control

O=C(Nc1ccccc1C(F)(F)F)c1cccc(Cl)c1
inactive: dose: 100.0 mg/kg/injection, schedule: Q01DX009 (ip), vehicle: saline + alcohol 90 % of control | dose: 100.0 mg/kg/injection, schedule: Q04DX003 (ip), vehicle: saline + alcohol 97 % of control | dose: 200.0 mg/kg/injection, schedule: Q01DX009 (ip), vehicle: saline + alcohol 93 % of control | dose: 200.0 mg/kg/injection, schedule: Q04DX003 (ip), vehicle: saline + alcohol 100 % of control | dose: 400.0 mg/kg/injection, schedule: Q01DX009 (ip), vehicle: saline + alcohol 96 % of control | dose: 400.0 mg/kg/injection, schedule: Q04DX003 (ip), vehicle: saline + alcohol 95 % of control

COc1ccc(C(=O)CC(C(=O)O)c2ccc(OC)c(OC)c2)cc1OC (stereo unspecified)
inactive: [7] 98 % of control | [9] 102 % of control | [14] 91 % of control

Cc1ccc(Cl)c(S(=O)(=O)F)c1
inactive: [11] 88 % of control | [7] 106 % of control | [12] 103 % of control | [9] 93 % of control | [15] 101 % of control | [14] 100 % of control

NC(=O)NC1OC(CO)C(O)C(O)C1O (stereo unspecified)
inactive: [4] 100 % of control | [5] 100 % of control | [13] 105 % of control

O=C1C=CC(=Nc2ccccc2)O1
inactive: dose: 2.5 mg/kg/injection, schedule: Q01DX009 (ip), vehicle: saline with Tween-80 96 % of control | dose: 2.5 mg/kg/injection, schedule: Q04DX003 (ip), vehicle: saline with Tween-80 101 % of control | dose: 5.0 mg/kg/injection, schedule: Q01DX009 (ip), vehicle: saline with Tween-80 102 % of control | dose: 5.0 mg/kg/injection, schedule: Q04DX003 (ip), vehicle: saline with Tween-80 101 % of control | dose: 10.0 mg/kg/injection, schedule: Q01DX009 (ip), vehicle: saline with Tween-80 93 % of control | dose: 10.0 mg/kg/injection, schedule: Q04DX003 (ip), vehicle: saline with Tween-80 98 % of control

CCOC(=O)C(C(C)=O)C(C)=O
inactive: [7] 102 % of control | [9] 94 % of control | [14] 94 % of control

Cc1ccc(C(O)c2c(C)cc(C)cc2C)c(C)c1 (stereo unspecified)
inactive: [7] 94 % of control | [9] 89 % of control | [14] 88 % of control

O=C(/C=C/c1ccc(OCc2ccccc2)c(OCc2ccccc2)c1)OCc1ccccc1
inactive: [16] 102 % of control | [1] 91 % of control | [2] 95 % of control | [3] 95 % of control

COC(=O)c1ccccc1NC(=O)Nc1cccc(OC)c1
inactive: dose: 100.0 mg/kg/injection, schedule: Q01DX001 (ip), vehicle: Klucel (hydroxypropylcellulose) (HPC) 95 % of control | dose: 200.0 mg/kg/injection, schedule: Q01DX001 (ip), vehicle: Klucel (hydroxypropylcellulose) (HPC) 101 % of control | dose: 400.0 mg/kg/injection, schedule: Q01DX001 (ip), vehicle: Klucel (hydroxypropylcellulose) (HPC) 95 % of control

CC1=C(N)C(=O)c2c(COC(N)=O)c3n(c2C1=O)C[C@H]1N[C@@H]31
inactive: dose: 3.0 mg/kg/injection, schedule: Q01DX001 (ip), vehicle: distilled water + Tween-80 105 % of control | dose: 6.0 mg/kg/injection, schedule: Q01DX001 (ip), vehicle: distilled water + Tween-80 100 % of control | dose: 12.0 mg/kg/injection, schedule: Q01DX001 (ip), vehicle: distilled water + Tween-80 100 % of control | dose: 24.0 mg/kg/injection, schedule: Q01DX001 (ip), vehicle: distilled water + Tween-80 100 % of control | dose: 48.0 mg/kg/injection, schedule: Q01DX001 (ip), vehicle: distilled water + Tween-80 94 % of control

Nc1nc(-c2ccccc2)nc2c1=NC(c1ccccc1)N=2 (stereo unspecified)
inactive: dose: 12.5 mg/kg/injection, schedule: Q01DX005 (ip), vehicle: other 96 % of control | dose: 25.0 mg/kg/injection, schedule: Q01DX005 (ip), vehicle: other 98 % of control | dose: 50.0 mg/kg/injection, schedule: Q01DX005 (ip), vehicle: other 98 % of control | dose: 100.0 mg/kg/injection, schedule: Q01DX005 (ip), vehicle: other 93 % of control | dose: 200.0 mg/kg/injection, schedule: Q01DX005 (ip), vehicle: other 93 % of control

COC(=O)C1=CNC=C(C(=O)OC)C1c1ccccc1Cl
inactive: [7] 95 % of control | [9] 97 % of control | [14] 89 % of control

Cc1c(O)c2c(c(O)c1Cc1cccc(CN)c1)C(=O)c1ccccc1C2=O
inactive: dose: 1.56 mg/kg/injection, schedule: Q01DX009 (ip), vehicle: other 101 % of control | dose: 3.13 mg/kg/injection, schedule: Q01DX009 (ip), vehicle: other 93 % of control | dose: 6.25 mg/kg/injection, schedule: Q01DX009 (ip), vehicle: other 87 % of control | dose: 12.5 mg/kg/injection, schedule: Q01DX009 (ip), vehicle: other 90 % of control | dose: 25.0 mg/kg/injection, schedule: Q01DX009 (ip), vehicle: other 94 % of control

Cc1ccc2nc(-c3cccc([N+](=O)[O-])c3)oc(=O)c2c1
inactive: [11] 97 % of control | [12] 96 % of control | [15] 94 % of control

[Cl][Hg][CH2]CN1CCCCC1
inactive: [16] 94 % of control | [1] 94 % of control | [2] 94 % of control

CCOC(=O)c1[nH]c(=S)[nH]c1C(=O)OCC
inactive: [10] 100 % of control

CC(=O)CC(C)=NCCN=C(C)CC(C)=O.[Pd]
inactive: dose: 3.13 mg/kg/injection, schedule: Q04DX003 (ip), vehicle: distilled water + Tween-80 93 % of control | dose: 6.25 mg/kg/injection, schedule: Q04DX003 (ip), vehicle: distilled water + Tween-80 108 % of control | dose: 12.5 mg/kg/injection, schedule: Q04DX003 (ip), vehicle: distilled water + Tween-80 100 % of control
